Laboratory results from patent publication US5049494A, “Conversion of mannose to fructose” (Allied-Signal Inc., priority 1989, dated 1991).

System: immobilized mannose isomerase
Details: 0.4 g immobilized enzyme, 40° C., 5 ml of 0.1M sugar solution, after 18 hours
Protocol: Mannose isomerase activity was typically determined at 40° C. using a feedstock containing 0.1M D-mannose and 0.2M Tris buffer at pH 6.5. Mannose isomerase activity was determined in extracts primarily by measuring mannose-dependent formation of fructose according to the method described by J. H. Roe, J Biol. Chem. 107: 15-19 (1934). Assay mixtures (1 ml) containing 200 mM Tris buffer, pH 7, 100 mM D-mannose, and appropriately diluted cell extract were incubated at 40° C. After 15 min., 0.2 ml of each reaction mixture was transferred to a separate tube and 0.2 ml of ethanol containing 0.1% (wt/vol) resorcinol and 0.6 ml of 10N HCl was added. The tubes were incubated at 80° C. for 8 min, and then placed in ice water to stop the reaction. The absorbance at 484 nm was determined and compared to a standard curve relating absorbance to fructose concentration. An absorbance of 0.1 was equivalent to 150 nmoles of fructose per ml of assay mixture. The conversion of mannose to fructose (as well as any reactions with other sugars) was also determined using HPLC and known standards.
A similar set of experiments was used to test the behavior of the enzyme in the presence of other sugar substrates. For such experiments a mixed sugar feed was prepared approximating the ratios of hemicellulose-derived sugars identified in sulfite waste liquor streams and containing (in grams per liter of 0.2M Tris buffer at pH 7) galactose (15.9), glucose (15.9), mannose (40.3), arabinose (8.0), and xylose (15.2),.

Loss of sugar, no detectable loss:
O=C[C@H](O)[C@@H](O)[C@@H](O)[C@H](O)CO [D-galactose]
O=C[C@@H](O)[C@@H](O)[C@H](O)CO [D-lyxose]
O=C[C@H](O)[C@@H](O)[C@H](O)CO [D-xylose]
O=C(CO)[C@@H](O)[C@H](O)CO [D-xylulose]
O=C[C@H](O)[C@@H](O)[C@@H](O)CO [L-arabinose]
O=C[C@H](O)[C@H](O)[C@@H](O)[C@@H](O)CO [L-mannose]
C[C@H](O)[C@H](O)[C@@H](O)[C@@H](O)C=O [L-rhamnose]
